Experimental data reported in the NIST ThermoML archive (doi:10.1016/j.jct.2013.11.038).
Values joined by “and” are separate entries in the source; they are usually repeats but may differ in a detail not shown here. Equal values may be shown once. Numbers after ± are expanded uncertainties.

Experiments:
[1] = Crystal; for vapor or sublimation pressure: Calculated from knudsen effusion weight loss; for Normal melting temperature: DTA
[2] = Molar enthalpy of transition or fusion; conditions: Crystal; DSC
[3] = molar heat capacity at constant pressure; conditions: 101.33 kPa, Crystal, Large sample (1 g) DSC

O=C1c2ccccc2-c2cccc3cccc1c23 [7H-benz[de]anthracen-7-one]
Conditions | molar heat capacity at constant pressure [J/K/mol] | vapor or sublimation pressure
[1], 360.04 K | – | 5.7e-06 ± 3e-07 kPa [middle of 4 runs]
[1], 369.32 K | – | 1.67e-05 ± 9e-07 kPa [middle of 4 runs]
[1], 380.12 K | – | 5.13e-05 ± 2.6e-06 kPa [middle of 6 runs]
[1], 390.32 K | – | 0.0001425 ± 7.3e-06 kPa [middle of 6 runs]
[1], 400.17 K | – | 0.0003806 ± 1.9e-05 kPa [middle of 7 runs]
[1], 410.37 K | – | 0.0009607 ± 4.8e-05 kPa [middle of 6 runs]
[3], 300.47 K | 257.2 ± 11 | –
[3], 305.43 K | 262.2 ± 11 | –
[3], 310.4 K | 265.7 ± 11 | –
[3], 315.36 K | 270.5 ± 12 | –
[3], 320.32 K | 275 ± 12 | –

Conditions | Molar enthalpy of transition or fusion [kcal/mol] | Normal melting temperature [°C]
[1] | – | 173.63 ± 2
[2] | 6.3 ± 0.179 | –

O=C(O)c1ccccc1 [benzoic acid]
Conditions | molar heat capacity at constant pressure [J/K/mol] | vapor or sublimation pressure
[1], 269.3 K | – | 2.1e-06 ± 1e-07 kPa and 2.2e-06 ± 1e-07 kPa
[1], 275.04 K | – | 5.1e-06 ± 3e-07 kPa and 5e-06 ± 3e-07 kPa and 4.9e-06 ± 3e-07 kPa
[1], 281.33 K | – | 1.24e-05 ± 7e-07 kPa [middle of 4 runs]
[1], 287.28 K | – | 2.71e-05 ± 1.4e-06 kPa [middle of 7 runs]
[1], 293.19 K | – | 5.78e-05 ± 3e-06 kPa [middle of 6 runs]
[1], 299.18 K | – | 0.0001196 ± 6.2e-06 kPa [middle of 7 runs]
[1], 305.18 K | – | 0.0002454 ± 1.3e-05 kPa [middle of 7 runs]
[1], 311.17 K | – | 0.0004925 ± 2.5e-05 kPa [middle of 7 runs]
[1], 317.13 K | – | 0.0009533 ± 4.8e-05 kPa [middle of 6 runs]
[3], 308.15 K | 152.1 ± 6.5 | –
[3], 318.15 K | 157.3 ± 6.7 | –
[3], 328.15 K | 161.6 ± 6.9 | –
[3], 338.15 K | 166.9 ± 7.1 | –
[3], 348.15 K | 170.8 ± 7.2 | –
[3], 358.15 K | 175.6 ± 7.5 | –
[3], 368.15 K | 180 ± 7.6 | –
[3], 378.15 K | 186.9 ± 7.9 | –

Conditions | Molar enthalpy of transition or fusion [kcal/mol] | Normal melting temperature [°C]
[1] | – | 122.22 ± 2
[2] | 4.28 ± 0.127 | –

O=C(Oc1ccccc1)Oc1ccccc1 [diphenyl carbonate]
[1]
Conditions | vapor or sublimation pressure
302.18 K | 2.22e-05 ± 1.2e-06 kPa [middle of 5 runs]
308.17 K | 5.05e-05 ± 2.6e-06 kPa [middle of 5 runs]
314.32 K | 0.0001144 ± 5.9e-06 kPa [middle of 7 runs]
320.25 K | 0.0002424 ± 1.3e-05 kPa [middle of 7 runs]
326.23 K | 0.0005075 ± 2.6e-05 kPa [middle of 7 runs]
332.24 K | 0.001043 ± 0.00011 kPa [middle of 6 runs]

CCCCCCCCCCCCCCCCCC [octadecane]
Conditions | molar heat capacity at constant pressure, 283.85 K [J/K/mol] | molar heat capacity at constant pressure, 285.5 K [J/K/mol] | molar heat capacity at constant pressure, 287.15 K [J/K/mol] | molar heat capacity at constant pressure, 288.81 K [J/K/mol] | molar heat capacity at constant pressure, 290.46 K [J/K/mol] | vapor or sublimation pressure, 286.34 K | vapor or sublimation pressure, 289.28 K | vapor or sublimation pressure, 292.27 K | vapor or sublimation pressure, 295.17 K | vapor or sublimation pressure, 297.99 K
[1] | – | – | – | – | – | 2e-06 ± 1e-07 kPa [middle of 4 runs] | 3.1e-06 ± 2e-07 kPa [middle of 4 runs] | 5.9e-06 ± 3e-07 kPa [middle of 4 runs] | 1.02e-05 ± 6e-07 kPa and 1.07e-05 ± 6e-07 kPa and 1.01e-05 ± 6e-07 kPa | 1.9e-05 ± 1e-06 kPa [middle of 5 runs]
[3] | 448.6 ± 19 | 455.2 ± 19 | 460.7 ± 20 | 467.3 ± 20 | 472.4 ± 20 | – | – | – | – | –

Conditions | Molar enthalpy of transition or fusion [kcal/mol] | Normal melting temperature [°C]
[1] | – | 28.31 ± 2
[2] | 14.7 ± 0.406 | –
